From PubChem BioAssay (NCI)
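Five concentrations, 48 hours, 96-well plates. TGI marks complete inhibition of growth.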

Assays:
Experiment in all cases: DTP human tumour cell line panel, 48 h
SR leukemia = tested on: SR leukemia
SN12C renal = tested on: SN12C renal
MALME-3M melanoma = tested on: MALME-3M melanoma
UACC-62 melanoma = tested on: UACC-62 melanoma
SK-MEL-2 melanoma = tested on: SK-MEL-2 melanoma
RPMI-8226 leukemia = tested on: RPMI-8226 leukemia
BT-549 breast = tested on: BT-549 breast
NCI-H23 lung = tested on: NCI-H23 lung
MDA-MB-231 breast = tested on: MDA-MB-231 breast
NCI-H460 lung = tested on: NCI-H460 lung
SK-MEL-28 melanoma = tested on: SK-MEL-28 melanoma
NCI/ADR-RES ovarian = tested on: NCI/ADR-RES ovarian
COLO 205 colon = tested on: COLO 205 colon
A549 NSCLC = tested on: A549 NSCLC
NCI-H226 lung = tested on: NCI-H226 lung
EKVX NSCLC = tested on: EKVX NSCLC
U251 CNS = tested on: U251 CNS
SNB-75 CNS = tested on: SNB-75 CNS
HCT-116 colon = tested on: HCT-116 colon
OVCAR-3 ovarian = tested on: OVCAR-3 ovarian

O=C(O)CCSC(CC1(c2ccc(Cl)cc2)NC(=O)CCS1)c1ccccc1 (stereo not given)
TGI (SR leukemia): > 100 µM
TGI (SN12C renal): 33.4 µM
TGI (MALME-3M melanoma): 41.6 µM
TGI (UACC-62 melanoma): 39.7 µM
TGI (SK-MEL-2 melanoma): 38.7 µM
TGI (RPMI-8226 leukemia): > 100 µM
TGI (BT-549 breast): 31.1 µM
TGI (NCI-H23 lung): 50.1 µM
TGI (MDA-MB-231 breast): 46.6 µM
TGI (NCI-H460 lung): 64.7 µM
TGI (SK-MEL-28 melanoma): 37.7 µM
TGI (NCI/ADR-RES ovarian): 49.3 µM
TGI (COLO 205 colon): > 60.6 µM
TGI (A549 NSCLC): > 63.1 µM
TGI (NCI-H226 lung): 40.8 µM
TGI (EKVX NSCLC): 46.9 µM
TGI (U251 CNS): 42.2 µM
TGI (SNB-75 CNS): 32.3 µM
TGI (HCT-116 colon): 17.4 µM
TGI (OVCAR-3 ovarian): 41.5 µM

COc1cccc2nc3c(C(=O)NCCN(C)C)cccc3cc12
TGI (SR leukemia): 3.15 µM
TGI (SN12C renal): 8.35 µM
TGI (MALME-3M melanoma): 4.4 µM
TGI (UACC-62 melanoma): 7.77 µM
TGI (SK-MEL-2 melanoma): 12.7 µM
TGI (RPMI-8226 leukemia): 19.1 µM
TGI (BT-549 breast): 10.7 µM
TGI (NCI-H23 lung): 6.05 µM
TGI (MDA-MB-231 breast): 9.27 µM
TGI (NCI-H460 lung): 4.44 µM
TGI (SK-MEL-28 melanoma): 9.85 µM
TGI (NCI/ADR-RES ovarian): 9.17 µM
TGI (COLO 205 colon): 2.55 µM
TGI (A549 NSCLC): 4.49 µM
TGI (NCI-H226 lung): 4.15 µM
TGI (EKVX NSCLC): 9.64 µM
TGI (U251 CNS): 5.46 µM
TGI (SNB-75 CNS): 14.4 µM
TGI (HCT-116 colon): 14.9 µM
TGI (OVCAR-3 ovarian): 12.3 µM

CCOC(=O)[C@H](C)OC(=O)[C@@](C)(NC(=O)c1ccccc1C(=O)OC)[C@@H]1NC=C(C(=O)OC)CS1
TGI (SR leukemia): 46.5 µM
TGI (SN12C renal): > 100 µM
TGI (MALME-3M melanoma): > 100 µM
TGI (UACC-62 melanoma): > 100 µM
TGI (SK-MEL-2 melanoma): > 100 µM
TGI (RPMI-8226 leukemia): > 100 µM
TGI (BT-549 breast): > 100 µM
TGI (NCI-H23 lung): > 100 µM
TGI (MDA-MB-231 breast): > 100 µM
TGI (NCI-H460 lung): > 100 µM
TGI (SK-MEL-28 melanoma): > 100 µM
TGI (NCI/ADR-RES ovarian): > 100 µM
TGI (COLO 205 colon): > 100 µM
TGI (A549 NSCLC): > 100 µM
TGI (NCI-H226 lung): > 100 µM
TGI (EKVX NSCLC): > 100 µM
TGI (U251 CNS): > 100 µM
TGI (SNB-75 CNS): > 100 µM
TGI (HCT-116 colon): > 100 µM
TGI (OVCAR-3 ovarian): > 100 µM

CC1C=CN(N(C)C)C2=C1C(=O)c1cnccc1C2=O (stereo not given)
TGI (SR leukemia): 0.196 µM
TGI (SN12C renal): 0.558 µM
TGI (MALME-3M melanoma): 1.49 µM
TGI (UACC-62 melanoma): 0.342 µM
TGI (SK-MEL-2 melanoma): 4.02 µM
TGI (RPMI-8226 leukemia): 2.65 µM
TGI (BT-549 breast): 1.66 µM
TGI (NCI-H23 lung): 0.823 µM
TGI (MDA-MB-231 breast): 2.12 µM
TGI (NCI-H460 lung): 0.389 µM
TGI (SK-MEL-28 melanoma): 2.07 µM
TGI (NCI/ADR-RES ovarian): 4.09 µM
TGI (COLO 205 colon): 2.45 µM
TGI (A549 NSCLC): 2.11 µM
TGI (NCI-H226 lung): 2.14 µM
TGI (EKVX NSCLC): 2.07 µM
TGI (U251 CNS): 2.49 µM
TGI (SNB-75 CNS): 0.868 µM
TGI (HCT-116 colon): 1.48 µM
TGI (OVCAR-3 ovarian): 2.37 µM

CC1OC(OC2C(OC(=O)[C@]34CCC(C)(C)C[C@H]3C3=CC[C@@H]5[C@@]6(C)CC[C@H](OC7OC(CO)C(O)C(O)C7OC7OC(CO)C(O)C(O)C7O)C(C)(C)[C@@H]6CC[C@@]5(C)[C@]3(C)CC4)OCC(O)C2O)C(O)C(OC2OCC(O)C(O)C2O)C1OC1OCC(O)C(OC2OCC(O)C(O)C2O)C1O (stereo not given in full)
TGI (SR leukemia): 16.2 µM
TGI (SN12C renal): 5.56 µM
TGI (MALME-3M melanoma): 18.3 µM
TGI (UACC-62 melanoma): 30.2 µM
TGI (SK-MEL-2 melanoma): 24.1 µM
TGI (RPMI-8226 leukemia): 24 µM
TGI (BT-549 breast): 31.4 µM
TGI (NCI-H23 lung): 25.1 µM
TGI (MDA-MB-231 breast): 26.9 µM
TGI (NCI-H460 lung): > 100 µM
TGI (SK-MEL-28 melanoma): 4.85 µM
TGI (NCI/ADR-RES ovarian): > 100 µM
TGI (COLO 205 colon): 8.16 µM
TGI (A549 NSCLC): 15 µM
TGI (NCI-H226 lung): 24.7 µM
TGI (EKVX NSCLC): 17.1 µM
TGI (U251 CNS): > 56.8 µM
TGI (SNB-75 CNS): 40.8 µM
TGI (HCT-116 colon): > 100 µM
TGI (OVCAR-3 ovarian): > 100 µM

CC1(C)OC2C(O)C(CO)OC2(C(F)F)O1 (stereo not given)
TGI (SR leukemia): > 100 µM
TGI (SN12C renal): > 100 µM
TGI (MALME-3M melanoma): > 100 µM
TGI (UACC-62 melanoma): > 100 µM
TGI (SK-MEL-2 melanoma): > 100 µM
TGI (RPMI-8226 leukemia): > 100 µM
TGI (BT-549 breast): > 100 µM
TGI (NCI-H23 lung): > 100 µM
TGI (MDA-MB-231 breast): > 100 µM
TGI (NCI-H460 lung): > 100 µM
TGI (SK-MEL-28 melanoma): > 100 µM
TGI (NCI/ADR-RES ovarian): > 100 µM
TGI (COLO 205 colon): > 100 µM
TGI (A549 NSCLC): > 100 µM
TGI (NCI-H226 lung): > 100 µM
TGI (EKVX NSCLC): > 100 µM
TGI (U251 CNS): > 100 µM
TGI (SNB-75 CNS): > 100 µM
TGI (HCT-116 colon): > 100 µM
TGI (OVCAR-3 ovarian): > 100 µM
